Assay results from ChEMBL document CHEMBL5223099, “Covalent cannabinoid receptor ligands - structural insight and selectivity challenges” (RSC Med Chem, 2022).
Values belong to the molecule of their own block, whether it stands above or below them.

Key:
Cannabinoid receptor 2 [1] = biological target: T1, Cannabinoid receptor 2 (Homo sapiens, UniProt P34972); test: Antagonist activity at human CB2R assessed as beta arrestin-2 recruitment by measuring inhibition constant
Cannabinoid receptor 1 [2] = biological target: T2, Cannabinoid receptor 1 (Homo sapiens, UniProt P21554); test: Antagonist activity at human CB1R assessed as beta arrestin-2 recruitment by measuring inhibition constant
Cannabinoid receptor 1 [3] = biological target: T2, Cannabinoid receptor 1; test: Displacement of [3H]- CP55940 from human CB1R expressed in HEK293F cells assessed as inhibition constant incubated for 1 hr by scintillation counter analysis; format: cell-based; conditions: filed as antagonist
Cannabinoid receptor 2 [4] = biological target: T1, Cannabinoid receptor 2; test: Binding affinity to wild type human CB2R expressed in HEK293 cells assessed as inhibition constant; format: cell-based
Cannabinoid receptor 1 [5] = biological target: Cannabinoid receptor 1 (Rattus norvegicus, UniProt P20272); test: Antagonist activity at rat CB1R expressed in CHO cells assessed as inhibition of forskolin stimulated cyclic AMP production; format: cell-based
Cannabinoid receptor 1 [6] = biological target: T2, Cannabinoid receptor 1; test: Binding affinity to CB1R (unknown origin) assessed as inhibition constant; conditions: filed as antagonist

T2 sequence (P21554 whole entry): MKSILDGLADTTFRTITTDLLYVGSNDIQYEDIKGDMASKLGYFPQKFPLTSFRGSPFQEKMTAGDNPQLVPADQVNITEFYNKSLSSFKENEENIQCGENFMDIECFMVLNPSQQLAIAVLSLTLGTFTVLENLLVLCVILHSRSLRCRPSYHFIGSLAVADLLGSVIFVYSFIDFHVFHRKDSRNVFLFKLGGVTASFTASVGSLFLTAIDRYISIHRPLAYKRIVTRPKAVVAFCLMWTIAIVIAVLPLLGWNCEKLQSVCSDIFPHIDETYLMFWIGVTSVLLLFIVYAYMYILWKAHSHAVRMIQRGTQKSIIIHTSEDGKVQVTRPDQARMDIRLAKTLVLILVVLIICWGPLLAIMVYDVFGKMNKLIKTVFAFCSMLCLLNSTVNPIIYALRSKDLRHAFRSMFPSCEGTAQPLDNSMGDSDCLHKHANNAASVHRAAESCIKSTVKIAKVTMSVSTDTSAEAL
T1 sequence (P34972 whole entry): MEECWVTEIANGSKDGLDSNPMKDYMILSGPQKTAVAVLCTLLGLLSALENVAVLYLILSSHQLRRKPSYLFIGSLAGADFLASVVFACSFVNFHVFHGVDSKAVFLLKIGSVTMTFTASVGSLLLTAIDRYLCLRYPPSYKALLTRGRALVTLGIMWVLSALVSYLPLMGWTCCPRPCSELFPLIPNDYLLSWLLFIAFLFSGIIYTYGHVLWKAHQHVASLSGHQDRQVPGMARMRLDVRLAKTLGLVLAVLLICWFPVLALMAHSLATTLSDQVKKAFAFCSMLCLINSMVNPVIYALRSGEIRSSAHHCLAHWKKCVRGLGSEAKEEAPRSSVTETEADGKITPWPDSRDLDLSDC
Chain of Cannabinoid receptor 1 (Rattus norvegicus, UniProt P20272) (P20272 whole entry): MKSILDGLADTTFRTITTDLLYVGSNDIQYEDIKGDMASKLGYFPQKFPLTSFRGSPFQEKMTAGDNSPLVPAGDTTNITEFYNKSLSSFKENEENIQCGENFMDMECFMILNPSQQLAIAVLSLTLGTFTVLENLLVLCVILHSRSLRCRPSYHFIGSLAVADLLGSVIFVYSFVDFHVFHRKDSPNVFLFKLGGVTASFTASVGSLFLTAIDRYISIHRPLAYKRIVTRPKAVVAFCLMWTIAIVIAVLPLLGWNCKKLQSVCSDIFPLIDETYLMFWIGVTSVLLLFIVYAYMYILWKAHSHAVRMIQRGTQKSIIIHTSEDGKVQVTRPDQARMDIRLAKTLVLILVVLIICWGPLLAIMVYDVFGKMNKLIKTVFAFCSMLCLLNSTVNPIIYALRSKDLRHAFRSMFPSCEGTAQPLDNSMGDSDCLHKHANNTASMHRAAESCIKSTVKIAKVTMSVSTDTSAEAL

SMILES: Cc1c(C(=O)NC23CC4CC(CC(C4)C2)C3)nn(CCCCCO)c1-c1ccccc1
Ki (Cannabinoid receptor 2 [1]): 0.075 nM
Ki (Cannabinoid receptor 1 [2]): 13 nM

K (Cannabinoid receptor 1 [3]): 5.1 nM
SMILES: Cc1c(C(=O)NN2CCCCC2)nn(-c2ccc(Cl)cc2Cl)c1-c1ccc(C#CCCO[N+](=O)[O-])cc1

SMILES: CCCCCn1nc(C(=O)NC23CC4CC(CC(C4)C2)C3)c(C)c1-c1ccccc1
Ki (Cannabinoid receptor 2 [4]): 0.63 nM

SMILES: CCCCCCC(C)(C)c1cc(OC)c([C@H]2C=C(CO)[C@H]3C[C@@H]2C3(C)C)c(OC)c1
Ki (Cannabinoid receptor 1 [5]): > 10000 nM

K (Cannabinoid receptor 1 [6]): 5.76 nM
SMILES: Cc1c(C(=O)NC23CC4CC(CC(C4)C2)C3)nn(CCCCSC#N)c1-c1ccccc1
